Activity calls are given as the source filed them. For most assays here, no stated cut-off is given here; in the data, actives have a measured Kd and inactives only a lower limit.
What was measured:
[1] = target: Elongation factor Tu, mitochondrial (Homo sapiens, UniProt P49411)
[2] = target: T1, dCTP pyrophosphatase 1 (Homo sapiens, UniProt Q9H773)
T1 sequence (Q9H773 whole entry): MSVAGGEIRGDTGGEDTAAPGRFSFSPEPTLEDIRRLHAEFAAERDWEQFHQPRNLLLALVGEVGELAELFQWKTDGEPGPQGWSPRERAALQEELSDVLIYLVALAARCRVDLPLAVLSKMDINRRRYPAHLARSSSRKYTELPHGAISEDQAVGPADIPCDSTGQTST

[3] = target: LIM domain kinase 2 (Homo sapiens, UniProt P53671)
[4] = target: S-adenosylmethionine synthase isoform type-2 (Homo sapiens, UniProt P31153)
[5] = target: T2, Serine/threonine-protein kinase TAO1 (Homo sapiens, UniProt Q7L7X3)
T2 sequence (Q7L7X3 whole entry): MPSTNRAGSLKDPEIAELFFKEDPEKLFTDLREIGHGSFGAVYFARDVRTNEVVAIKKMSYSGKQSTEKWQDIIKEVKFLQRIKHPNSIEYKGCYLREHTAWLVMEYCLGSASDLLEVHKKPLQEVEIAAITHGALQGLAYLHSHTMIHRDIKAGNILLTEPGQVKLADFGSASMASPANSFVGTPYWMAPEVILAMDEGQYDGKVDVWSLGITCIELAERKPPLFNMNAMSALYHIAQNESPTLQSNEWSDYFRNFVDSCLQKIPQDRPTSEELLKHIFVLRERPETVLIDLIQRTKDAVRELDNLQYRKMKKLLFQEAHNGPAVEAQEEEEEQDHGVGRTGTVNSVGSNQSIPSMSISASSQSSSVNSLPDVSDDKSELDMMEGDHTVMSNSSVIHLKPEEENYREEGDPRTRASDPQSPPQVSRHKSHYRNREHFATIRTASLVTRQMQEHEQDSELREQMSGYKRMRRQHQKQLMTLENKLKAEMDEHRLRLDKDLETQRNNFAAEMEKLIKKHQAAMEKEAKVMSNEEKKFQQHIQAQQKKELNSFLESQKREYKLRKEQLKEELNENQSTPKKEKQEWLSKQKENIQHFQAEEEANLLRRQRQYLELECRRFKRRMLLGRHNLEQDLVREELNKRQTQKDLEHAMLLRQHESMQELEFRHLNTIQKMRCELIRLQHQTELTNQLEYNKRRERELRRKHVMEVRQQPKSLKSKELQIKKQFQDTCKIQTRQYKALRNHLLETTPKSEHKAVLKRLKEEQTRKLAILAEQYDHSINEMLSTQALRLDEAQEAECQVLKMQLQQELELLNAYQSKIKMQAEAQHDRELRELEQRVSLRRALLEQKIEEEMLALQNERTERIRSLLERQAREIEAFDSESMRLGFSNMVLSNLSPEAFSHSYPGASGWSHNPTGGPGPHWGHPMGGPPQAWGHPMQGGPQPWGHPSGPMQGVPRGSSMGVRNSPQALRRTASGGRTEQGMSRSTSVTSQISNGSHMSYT

[6] = target: Calcium/calmodulin-dependent protein kinase type II subunit delta (Homo sapiens, UniProt Q13557)
[7] = target: T3, Serine/threonine-protein kinase D3 (Homo sapiens, UniProt O94806)
T3 sequence (O94806 whole entry): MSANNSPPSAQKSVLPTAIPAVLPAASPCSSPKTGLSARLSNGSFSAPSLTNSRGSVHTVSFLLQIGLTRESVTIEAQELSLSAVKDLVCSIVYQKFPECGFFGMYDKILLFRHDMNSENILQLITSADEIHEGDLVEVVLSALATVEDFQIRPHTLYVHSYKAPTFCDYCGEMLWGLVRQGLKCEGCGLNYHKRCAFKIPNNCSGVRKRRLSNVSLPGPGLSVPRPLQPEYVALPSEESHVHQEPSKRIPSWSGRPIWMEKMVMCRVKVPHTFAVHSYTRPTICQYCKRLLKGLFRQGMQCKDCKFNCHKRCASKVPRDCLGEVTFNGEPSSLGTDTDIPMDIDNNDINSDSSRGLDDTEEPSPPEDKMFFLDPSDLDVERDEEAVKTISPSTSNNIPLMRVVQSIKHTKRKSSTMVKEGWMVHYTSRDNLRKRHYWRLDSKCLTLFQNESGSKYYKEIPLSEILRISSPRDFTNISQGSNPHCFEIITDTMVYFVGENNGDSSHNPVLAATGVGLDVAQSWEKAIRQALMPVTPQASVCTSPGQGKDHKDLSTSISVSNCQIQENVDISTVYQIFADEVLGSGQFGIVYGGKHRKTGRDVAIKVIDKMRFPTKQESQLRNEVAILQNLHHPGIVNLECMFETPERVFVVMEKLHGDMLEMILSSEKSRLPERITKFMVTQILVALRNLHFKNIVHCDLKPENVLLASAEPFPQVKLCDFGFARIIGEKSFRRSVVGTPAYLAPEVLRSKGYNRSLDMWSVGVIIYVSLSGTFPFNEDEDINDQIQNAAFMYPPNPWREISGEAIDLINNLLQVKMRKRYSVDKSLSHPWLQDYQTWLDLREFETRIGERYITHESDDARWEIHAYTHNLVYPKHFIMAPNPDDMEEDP

[8] = target: T4, Mitogen-activated protein kinase kinase kinase 3 (Homo sapiens, UniProt Q99759)
T4 sequence (Q99759 whole entry): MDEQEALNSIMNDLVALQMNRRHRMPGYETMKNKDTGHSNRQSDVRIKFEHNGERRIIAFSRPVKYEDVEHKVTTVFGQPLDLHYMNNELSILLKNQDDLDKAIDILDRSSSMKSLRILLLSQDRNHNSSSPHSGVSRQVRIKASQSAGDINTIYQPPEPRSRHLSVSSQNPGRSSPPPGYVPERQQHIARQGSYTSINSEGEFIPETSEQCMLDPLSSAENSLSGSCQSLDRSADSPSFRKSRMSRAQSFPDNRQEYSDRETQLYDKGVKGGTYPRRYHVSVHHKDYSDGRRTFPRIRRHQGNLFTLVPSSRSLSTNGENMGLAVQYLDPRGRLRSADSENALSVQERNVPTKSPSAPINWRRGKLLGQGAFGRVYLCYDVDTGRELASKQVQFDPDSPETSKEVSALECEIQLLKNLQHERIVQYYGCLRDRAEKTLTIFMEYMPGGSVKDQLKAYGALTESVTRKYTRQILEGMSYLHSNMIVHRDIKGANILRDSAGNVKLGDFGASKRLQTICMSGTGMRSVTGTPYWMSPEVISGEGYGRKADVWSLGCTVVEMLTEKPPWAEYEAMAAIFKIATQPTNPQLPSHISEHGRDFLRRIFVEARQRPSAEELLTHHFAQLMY

[9] = target: Ribosomal protein S6 kinase alpha-6 (Homo sapiens, UniProt Q9UK32)
Sequence of Ribosomal protein S6 kinase alpha-6 (Q9UK32 whole entry): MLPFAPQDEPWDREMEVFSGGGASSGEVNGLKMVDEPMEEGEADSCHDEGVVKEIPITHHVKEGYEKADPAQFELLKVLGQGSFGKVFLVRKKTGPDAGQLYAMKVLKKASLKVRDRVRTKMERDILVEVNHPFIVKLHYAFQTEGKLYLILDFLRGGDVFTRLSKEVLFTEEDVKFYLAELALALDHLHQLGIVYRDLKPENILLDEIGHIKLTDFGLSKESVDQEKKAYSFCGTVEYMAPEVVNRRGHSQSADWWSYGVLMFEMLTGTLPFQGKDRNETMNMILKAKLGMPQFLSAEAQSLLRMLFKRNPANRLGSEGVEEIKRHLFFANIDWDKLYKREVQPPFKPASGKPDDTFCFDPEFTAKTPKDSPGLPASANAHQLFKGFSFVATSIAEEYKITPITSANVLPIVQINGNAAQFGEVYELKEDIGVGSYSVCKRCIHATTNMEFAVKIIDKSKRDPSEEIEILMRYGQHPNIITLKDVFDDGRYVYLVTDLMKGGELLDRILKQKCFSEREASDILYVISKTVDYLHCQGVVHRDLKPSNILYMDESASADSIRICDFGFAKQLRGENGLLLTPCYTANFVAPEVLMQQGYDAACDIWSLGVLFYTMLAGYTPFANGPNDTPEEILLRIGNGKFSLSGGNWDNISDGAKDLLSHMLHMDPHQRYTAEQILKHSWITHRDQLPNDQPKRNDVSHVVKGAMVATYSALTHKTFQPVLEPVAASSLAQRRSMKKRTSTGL

Sequence of S-adenosylmethionine synthase isoform type-2 (P31153 whole entry, canonical isoform): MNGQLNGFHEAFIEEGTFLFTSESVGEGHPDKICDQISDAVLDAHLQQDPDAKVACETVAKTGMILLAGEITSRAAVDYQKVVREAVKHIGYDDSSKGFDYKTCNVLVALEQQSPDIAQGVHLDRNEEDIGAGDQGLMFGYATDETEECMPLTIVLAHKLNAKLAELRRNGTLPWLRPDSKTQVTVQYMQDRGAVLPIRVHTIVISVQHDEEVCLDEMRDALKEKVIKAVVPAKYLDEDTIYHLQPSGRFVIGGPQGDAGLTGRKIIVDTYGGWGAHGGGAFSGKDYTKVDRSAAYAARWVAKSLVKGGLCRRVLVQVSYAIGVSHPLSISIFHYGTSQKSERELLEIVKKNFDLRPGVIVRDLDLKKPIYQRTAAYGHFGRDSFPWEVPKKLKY
Sequence of LIM domain kinase 2 (P53671 whole entry, the tested form may be a part, canonical isoform): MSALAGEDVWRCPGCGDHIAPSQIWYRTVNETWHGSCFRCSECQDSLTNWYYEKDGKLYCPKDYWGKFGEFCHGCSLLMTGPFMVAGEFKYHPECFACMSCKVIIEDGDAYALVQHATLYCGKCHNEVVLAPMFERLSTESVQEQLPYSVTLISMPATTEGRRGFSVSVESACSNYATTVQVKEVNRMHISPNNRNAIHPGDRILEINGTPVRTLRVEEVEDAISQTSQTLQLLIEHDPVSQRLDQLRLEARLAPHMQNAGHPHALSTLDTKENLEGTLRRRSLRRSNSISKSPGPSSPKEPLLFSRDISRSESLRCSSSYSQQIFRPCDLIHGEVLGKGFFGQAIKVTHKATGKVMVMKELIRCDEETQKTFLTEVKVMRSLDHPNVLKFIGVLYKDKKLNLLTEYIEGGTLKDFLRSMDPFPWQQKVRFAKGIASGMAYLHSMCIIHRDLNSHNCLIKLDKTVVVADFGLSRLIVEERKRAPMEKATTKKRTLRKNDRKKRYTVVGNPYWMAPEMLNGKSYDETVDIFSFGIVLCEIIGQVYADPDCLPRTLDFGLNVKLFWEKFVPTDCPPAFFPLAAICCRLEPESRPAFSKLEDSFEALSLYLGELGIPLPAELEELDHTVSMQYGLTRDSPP
Sequence of Calcium/calmodulin-dependent protein kinase type II subunit delta (Q13557 whole entry): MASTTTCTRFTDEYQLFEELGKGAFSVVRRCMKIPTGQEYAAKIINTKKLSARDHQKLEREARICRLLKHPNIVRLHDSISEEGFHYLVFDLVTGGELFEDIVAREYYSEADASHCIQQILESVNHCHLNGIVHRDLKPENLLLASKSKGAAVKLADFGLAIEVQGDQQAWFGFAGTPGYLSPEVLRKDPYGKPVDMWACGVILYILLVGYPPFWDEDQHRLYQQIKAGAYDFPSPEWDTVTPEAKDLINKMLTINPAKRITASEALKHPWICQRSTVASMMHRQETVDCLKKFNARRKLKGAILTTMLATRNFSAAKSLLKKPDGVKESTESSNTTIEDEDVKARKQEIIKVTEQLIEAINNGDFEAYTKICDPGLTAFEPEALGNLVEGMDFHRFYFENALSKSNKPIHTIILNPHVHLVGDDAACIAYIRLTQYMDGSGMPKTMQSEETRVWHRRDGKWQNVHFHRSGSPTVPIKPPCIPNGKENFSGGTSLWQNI

Compound | Kd [1] | Kd [2] | Kd [3] | Kd [4] | Kd [5] | Kd [6] | Kd [7] | Kd [8] | Kd [9]
CN(C[C@@H]1COCCO1)S(=O)(=O)Nc1ccc2ccc3ncc(-c4cnn(C)c4)cc3c(=O)c2c1 [MK-2461] | > 30 µM (inactive) | > 30 µM (inactive) | > 30 µM (inactive) | > 30 µM (inactive) | > 30 µM (inactive) | > 30 µM (inactive) | > 30 µM (inactive) | > 30 µM (inactive) | > 30 µM (inactive)
Cn1cc(-c2cnc3ccc4ccc(CS(=O)(=O)NCc5ccccn5)cc4c(=O)c3c2)cn1 [MK-8033] | > 30 µM (inactive) | > 30 µM (inactive) | > 30 µM (inactive) | > 30 µM (inactive) | > 30 µM (inactive) | > 30 µM (inactive) | > 30 µM (inactive) | > 30 µM (inactive) | > 30 µM (inactive)
COc1ncc(-c2ccc3nccc(-c4ccnnc4)c3c2)cc1NS(=O)(=O)c1ccc(F)cc1F [OMIPALISIB] | > 30 µM (inactive) | > 30 µM (inactive) | > 30 µM (inactive) | > 30 µM (inactive) | > 30 µM (inactive) | > 30 µM (inactive) | > 30 µM (inactive) | > 30 µM (inactive) | > 30 µM (inactive)
CCOc1cc2ncc(C#N)c(Nc3ccc(F)c(Cl)c3)c2cc1NC(=O)/C=C/CN(C)C [PELITINIB] | > 30 µM (inactive) | > 30 µM (inactive) | > 30 µM (inactive) | > 30 µM (inactive) | > 30 µM (inactive) | > 30 µM (inactive) | > 30 µM (inactive) | 2.09 µM (active) | > 30 µM (inactive)
CCCCCCCCCCCCCCCCCCOP(=O)([O-])OC1CC[N+](C)(C)CC1 [PERIFOSINE] | > 30 µM (inactive) | > 30 µM (inactive) | > 30 µM (inactive) | > 30 µM (inactive) | > 30 µM (inactive) | > 30 µM (inactive) | > 30 µM (inactive) | > 30 µM (inactive) | > 30 µM (inactive)
Cc1cnc(NC(=O)Nc2cc(Br)c(C)cc2OC[C@@H]2CNCCO2)cn1 [RABUSERTIB] | > 30 µM (inactive) | > 30 µM (inactive) | > 30 µM (inactive) | > 30 µM (inactive) | > 30 µM (inactive) | > 30 µM (inactive) | > 30 µM (inactive) | > 30 µM (inactive) | > 30 µM (inactive)
N#CC1(c2ccc(NC(=O)c3cccnc3NCc3ccncc3)cc2)CCCC1 [RIVOCERANIB] | > 30 µM (inactive) | > 30 µM (inactive) | > 30 µM (inactive) | > 30 µM (inactive) | > 30 µM (inactive) | > 30 µM (inactive) | > 30 µM (inactive) | > 30 µM (inactive) | > 30 µM (inactive)
O=c1[nH]ccc2cc(OC3CCNCC3)ccc12 [SAR-407899 FREE BASE] | > 30 µM (inactive) | > 30 µM (inactive) | > 30 µM (inactive) | > 30 µM (inactive) | > 30 µM (inactive) | > 30 µM (inactive) | > 30 µM (inactive) | > 30 µM (inactive) | > 30 µM (inactive)
CN1CCN(CCOc2cc(OC3CCOCC3)c3c(Nc4c(Cl)ccc5c4OCO5)ncnc3c2)CC1 [SARACATINIB] | > 30 µM (inactive) | > 30 µM (inactive) | > 30 µM (inactive) | > 30 µM (inactive) | > 30 µM (inactive) | > 30 µM (inactive) | > 30 µM (inactive) | > 30 µM (inactive) | > 30 µM (inactive)
Cn1cc(-c2cnn3c(N)c(Br)c([C@@H]4CCCNC4)nc23)cn1 [SCH-900776] | > 30 µM (inactive) | > 30 µM (inactive) | > 30 µM (inactive) | > 30 µM (inactive) | > 30 µM (inactive) | > 30 µM (inactive) | > 30 µM (inactive) | > 30 µM (inactive) | 1.27 µM (active)
